According to PubChem BioAssay (NCI):
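Results reflect a 48-hour exposure of cells in 96-well plates to compound at five concentrations. TGI marks complete inhibition of growth.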

How the values were obtained:
Assay in all cases: NCI-60 cell line screen, 48 h
786-0 renal = tested on: 786-0 renal
A498 renal = tested on: A498 renal
A549 NSCLC = tested on: A549 NSCLC
ACHN renal = tested on: ACHN renal
CAKI-1 renal = tested on: CAKI-1 renal
CCRF-CEM leukemia = tested on: CCRF-CEM leukemia
COLO 205 colon = tested on: COLO 205 colon
DLD-1 colon = tested on: DLD-1 colon
DMS 114 small cell lung = tested on: DMS 114 small cell lung
DMS 273 small cell lung = tested on: DMS 273 small cell lung
EKVX NSCLC = tested on: EKVX NSCLC
HCC-2998 colon = tested on: HCC-2998 colon
HCT-116 colon = tested on: HCT-116 colon
HCT-15 colon = tested on: HCT-15 colon
HL-60(TB) leukemia = tested on: HL-60(TB) leukemia
HOP-18 NSCLC = tested on: HOP-18 NSCLC
HOP-62 NSCLC = tested on: HOP-62 NSCLC
HT29 colon = tested on: HT29 colon
IGROV1 ovarian = tested on: IGROV1 ovarian
K-562 leukemia = tested on: K-562 leukemia
KM12 colon = tested on: KM12 colon
KM20L2 colon = tested on: KM20L2 colon
LOX IMVI melanoma = tested on: LOX IMVI melanoma
LXFL 529 NSCLC = tested on: LXFL 529 NSCLC
M14 melanoma = tested on: M14 melanoma
M19-MEL melanoma = tested on: M19-MEL melanoma
MALME-3M melanoma = tested on: MALME-3M melanoma
MOLT-4 leukemia = tested on: MOLT-4 leukemia
NCI-H226 lung = tested on: NCI-H226 lung
NCI-H23 lung = tested on: NCI-H23 lung
NCI-H460 lung = tested on: NCI-H460 lung
OVCAR-3 ovarian = tested on: OVCAR-3 ovarian
OVCAR-4 ovarian = tested on: OVCAR-4 ovarian
OVCAR-5 ovarian = tested on: OVCAR-5 ovarian
OVCAR-8 ovarian = tested on: OVCAR-8 ovarian
RPMI-8226 leukemia = tested on: RPMI-8226 leukemia
RXF 393 renal = tested on: RXF 393 renal
SF-268 CNS = tested on: SF-268 CNS
SF-295 CNS = tested on: SF-295 CNS
SF-539 CNS = tested on: SF-539 CNS
SK-MEL-2 melanoma = tested on: SK-MEL-2 melanoma
SK-MEL-28 melanoma = tested on: SK-MEL-28 melanoma
SK-MEL-5 melanoma = tested on: SK-MEL-5 melanoma
SK-OV-3 ovarian = tested on: SK-OV-3 ovarian
SN12C renal = tested on: SN12C renal
SNB-19 CNS = tested on: SNB-19 CNS
SNB-75 CNS = tested on: SNB-75 CNS
SNB-78 CNS = tested on: SNB-78 CNS
SW-620 colon = tested on: SW-620 colon
TK-10 renal = tested on: TK-10 renal
U251 CNS = tested on: U251 CNS
UACC-257 melanoma = tested on: UACC-257 melanoma
UACC-62 melanoma = tested on: UACC-62 melanoma
UO-31 renal = tested on: UO-31 renal
XF 498 CNS = tested on: XF 498 CNS

CC(=O)NC1=C(Nc2ccc(C)cc2)C(=O)c2ccccc2C1=O
TGI (786-0 renal): 39.3 µM
TGI (A498 renal): > 75 µM
TGI (A549 NSCLC): 29.3 µM
TGI (ACHN renal): 47.5 µM
TGI (CAKI-1 renal): > 75 µM
TGI (CCRF-CEM leukemia): 58.4 µM
TGI (COLO 205 colon): 45.3 µM
TGI (DLD-1 colon): > 75 µM
TGI (DMS 114 small cell lung): 38.4 µM
TGI (DMS 273 small cell lung): 61 µM
TGI (EKVX NSCLC): > 75 µM
TGI (HCC-2998 colon): > 75 µM
TGI (HCT-116 colon): 48.5 µM
TGI (HCT-15 colon): 39.3 µM
TGI (HL-60(TB) leukemia): 41.1 µM
TGI (HOP-18 NSCLC): 28.5 µM
TGI (HOP-62 NSCLC): 37.6 µM
TGI (HT29 colon): 31.9 µM
TGI (IGROV1 ovarian): 50.8 µM
TGI (K-562 leukemia): > 75 µM
TGI (KM12 colon): > 75 µM
TGI (KM20L2 colon): > 75 µM
TGI (LOX IMVI melanoma): 21.3 µM
TGI (LXFL 529 NSCLC): > 75 µM
TGI (M14 melanoma): 25.3 µM
TGI (M19-MEL melanoma): 17.5 µM
TGI (MALME-3M melanoma): 22.8 µM
TGI (MOLT-4 leukemia): 56.5 µM
TGI (NCI-H226 lung): 42.5 µM
TGI (NCI-H23 lung): 19.6 µM
TGI (NCI-H460 lung): 22.9 µM
TGI (OVCAR-3 ovarian): 45.7 µM
TGI (OVCAR-4 ovarian): 46.8 µM
TGI (OVCAR-5 ovarian): 27.4 µM
TGI (OVCAR-8 ovarian): > 75 µM
TGI (RPMI-8226 leukemia): 31.6 µM
TGI (RXF 393 renal): > 75 µM
TGI (SF-268 CNS): > 75 µM
TGI (SF-295 CNS): 54.7 µM
TGI (SF-539 CNS): 33 µM
TGI (SK-MEL-2 melanoma): 56.7 µM
TGI (SK-MEL-28 melanoma): 39.1 µM
TGI (SK-MEL-5 melanoma): 20.4 µM
TGI (SK-OV-3 ovarian): > 75 µM
TGI (SN12C renal): 44 µM
TGI (SNB-19 CNS): > 75 µM
TGI (SNB-75 CNS): 22.6 µM
TGI (SNB-78 CNS): > 75 µM
TGI (SW-620 colon): 27.7 µM
TGI (TK-10 renal): > 75 µM
TGI (U251 CNS): > 75 µM
TGI (UACC-257 melanoma): 51.5 µM
TGI (UACC-62 melanoma): 23 µM
TGI (UO-31 renal): > 75 µM
TGI (XF 498 CNS): 73.1 µM
